Measurements: patent US9126952B2, “Morpholinylquinazolines” (Merck Patent GmbH, priority 2010, dated 2015)

What follows are compounds tested against DNA-PK (Homo sapiens (Human), UniProt P78527) (assay: DNA-PK/biochemical assay (FlashPlate kinase assay)). Details: 5 μM ATP, 90 min, room temperature; read-out: Binding DNA-PK IC50.
Experimental: […] To this end, 1.5 μg of the DNA-PK/protein complex and 100 ng of biotinylated substrate, such as, for example, PESQEAFADLWKK biotin-NH2 (“biotin-DNA-PK peptide”), in a total volume of 36.5 μl (34.25 mM HEPES/KOH, 7.85 mM Tris-HCl, 68.5 mM KCl, 5 μM ATP, 6.85 mM MgCl2, 0.5 mM EDTA, 0.14 mM EGTA, 0.69 mM DTT, pH 7.4), were incubated at room temperature for 90 min with 500 ng of DNA from calf thymus, 0.1 μCi of 33P-ATP and 1.8% of DMSO per well with or without the test compound. The reaction was stopped using 50 μl/well of 200 mM EDTA. After incubation for a further 30 min at room temperature, the liquid was removed. Each well was washed three times with 100 μl of 0.9% sodium chloride solution. A non-specific reaction (blank value) was determined using 10 μM of a proprietary kinase inhibitor. The radioactivity measurement was carried out by means of a TopCount. IC50 values were calculated in RS1. • Literature: Kashishian et al. (2003) Molecular Cancer Therapeutics 1257.

Structure (SMILES)	IC50 [nM]
c1nc(N2CCCC(CN3CCOCC3)C2)c2ccc(N3CCOCC3)cc2n1 (stereo not drawn) [compound 21, 7-Morpholin-4-yl-4-(3-morpholin-4-ylmethylpiperidin-1-yl)quinazoline]	500 to 1000
c1csc(C2CCCN(c3ncnc4cc(N5CCOCC5)ccc34)C2)c1 (stereo not drawn) [compound 40, 7-Morpholin-4-yl-4-(3-thiophen-2-yl-piperidin-1-yl)-quinazoline]	< 100
c1cnc(CC2CCCN(c3ncnc4cc(N5CCOCC5)ccc34)C2)nc1 (stereo not drawn) [compound 31]	< 100
C1=C(c2cccs2)CN(c2ncnc3cc(N4CCOCC4)ccc23)CC1 [compound 37, 7-Morpholin-4-yl-4-(5-thiophen-2-yl-3,6-dihydro-2H-pyridin-1-yl)quinazoline]	100 to 500
Cc1csc(C(O)C2CCCN(c3ncnc4cc(N5CCOCC5)ccc34)C2)n1 (stereo not drawn) [compound 49, (4-Methylthiazol-2-yl)-[1-(7-morpholin-4-ylquinazolin-4-yl)-piperidin-3-yl]-methanol]	< 100
Cc1csc(CC2CCCN(c3ncnc4cc(N5CCOCC5)ccc34)C2)n1 (stereo not drawn) [compound 56, 4-[3-(4-Methyl-thiazol-2-ylmethyl)-piperidin-1-yl]-7-morpholin-4-yl-quinazoline]	< 100
c1nc(N2CCCC(CC3CCCCC3)C2)c2ccc(N3CCOCC3)cc2n1 (stereo not drawn) [compound 10]	500 to 1000
OC1(c2ccccc2)CCCN(c2ncnc3cc(N4CCOCC4)ccc23)C1 (stereo not drawn) [compound 15, 1-(7-Morpholin-4-yl-quinazoline-4-yl)-3-phenylpiperidin-3-ol]	500 to 1000
c1ccc2oc(C3CCCN(c4ncnc5cc(N6CCOCC6)ccc45)C3)nc2c1 (stereo not drawn) [compound 26, 4-(3-Benzoxazol-2-ylpiperidin-1-yl)-7-morpholin-4-yl-quinazoline]	100 to 500
c1nc(N2CCCCC2)c2ccc(N3CCOCC3)cc2n1 [compound 1, 7-Morpholin-4-yl-4-piperidin-1-yl-quinazoline]	< 100
c1nc(N2CCCC2)c2ccc(N3CCOCC3)cc2n1 [compound 7, 7-Morpholin-4-yl-4 pyrrolidin-1-yl-quinazoline]	100 to 500
OC(c1ccsc1)C1CCCN(c2ncnc3cc(N4CCOCC4)ccc23)C1 (stereo not drawn) [compound 45, [1-(7-Morpholin-4-yl-quinazolin-4-yl)-piperidin-3-yl]-thiophen-3-yl-methanol]	< 100
Cn1ccnc1C(O)C1CCCN(c2ncnc3cc(N4CCOCC4)ccc23)C1 (stereo not drawn) [compound 55, (1-Methyl-1H-imidazol-2-yl)-[1-(7-morpholin-4-yl-quinazolin-4-yl)-piperidin-3-yl]-methanol]	100 to 500
c1ccc2[nH]c(C3CCCN(c4ncnc5cc(N6CCOCC6)ccc45)C3)nc2c1 (stereo not drawn) [compound 24, 4-[3-(1H-Benzo-imidazol-2-yl)-piperidin-1-yl]-7-morpholin-4-yl-quinazoline]	500 to 1000
COc1ccc(CC2CCCN(c3ncnc4cc(N5CCOCC5)ccc34)C2)cc1OC (stereo not drawn) [compound 42, 4[3-(3,4-Dimethoxy-benzyl)piperidin-1-yl]-7-morpholin-4-yl-quinazoline]	100 to 500
NC(=O)C1CCCN(c2ncnc3cc(N4CCOCC4)ccc23)C1 (stereo not drawn) [compound 17, 1-(7-Morpholin-4-yl-quinazoline-4-yl)-piperidin-3-carboxamide]	500 to 1000
Clc1nc(N2CCCC(Cn3cccc3)C2)c2ccc(N3CCOCC3)cc2n1 (stereo not drawn) [compound 30, 2-Chloro-7-morpholin-4-yl-4-(3-pyrrol-1-ylmethyl-piperidin-1-yl)-quinazoline]	< 100
Cc1cccc(C2CCCN(c3ncnc4cc(N5CCOCC5)ccc34)C2)c1 (stereo not drawn) [compound 27, 7-Morpholin-4-yl-4-(3-m-tolylpiperidin-1-yl)quinazoline]	< 100
c1cn(CC2CCCN(c3ncnc4cc(N5CCOCC5)ccc34)C2)cn1 (stereo not drawn) [compound 23]	< 100
Clc1nc(N2CCCC(Cc3nccs3)C2)c2ccc(N3CCOCC3)cc2n1 (stereo not drawn) [compound 36, 2-Chloro-7-morpholin-4-yl-4-(3-thiazol-2-ylmethyl-piperidin-1-yl)-quinazoline]	< 100
COc1nc(N2CCCCC2)c2ccc(N3CCOCC3)cc2n1 [compound 39, 2-Methoxy-7-morpholin-4-yl-4-piperidin-1-yl-quinazoline]	> 1000
Cc1nc(C(O)C2CCCN(c3ncnc4cc(N5CCOCC5)ccc34)C2)sc1C (stereo not drawn) [compound 48, (4,5-Dimethyl-thiazol-2-yl)-[1-(7-morpholin-4-yl-quinazolin-4-yl)-piperidin-3-yl]-methanol]	< 100
O[C@H](c1nccs1)C1CCCN(c2ncnc3cc(N4CCOCC4)ccc23)C1 (stereo partly drawn) [compound 66]	< 100

Structure (SMILES)	IC50 [nM]
Oc1nc(N2CCCCC2)c2ccc(N3CCOCC3)cc2n1 [compound 54, 7-Morpholin-4-yl-4-piperidin-1-yl-quinazolin-2-ol]	> 1000
O=C(NC1CCCN(c2nc(Cl)nc3cc(N4CCOCC4)ccc23)C1)c1cscn1 (stereo not drawn) [compound 61]	100 to 500
c1ccc2sc(CC3CCCN(c4ncnc5cc(N6CCOCC6)ccc45)C3)cc2c1 (stereo not drawn) [compound 35, 4-(3-Benzo[b]-thiophen-2-ylmethyl-piperidin-1-yl)-7-morpholin-4-yl-quinazoline]	100 to 500
COc1cccc(C(O)C2CCCN(c3ncnc4cc(N5CCOCC5)ccc34)C2)c1 (stereo not drawn) [compound 38, (3-Methoxyphenyl)-[1-(7-morpholin-4-yl-quinazolin-4-yl)-piperidin-3-yl]-methanol]	< 100
O=C(NC1CCCN(c2nc(Cl)nc3cc(N4CCOCC4)ccc23)C1)c1cccs1 (stereo not drawn) [compound 64, N-[1-(2-Chloro-7-morpholin-4-yl-quinazolin-4-yl)-piperidin-3-yl]-thiophene-2-carboxamide]	100 to 500
COc1cccc(CC2CCCN(c3ncnc4cc(N5CCOCC5)ccc34)C2)c1 (stereo not drawn) [compound 41, 4-[3-(3-Methoxy-benzyl)piperidin-1-yl]-7-morpholin-4-yl-quinazoline]	< 100
Cc1noc(C2CCCN(c3ncnc4cc(N5CCOCC5)ccc34)C2)n1 (stereo not drawn) [compound 19, 4-[3-(3-Methyl-1,2,4-oxadiazol-5-yl)-piperidin-1-yl]-7-morpholin-4-yl-quinazoline]	500 to 1000
c1nc(N2CCCC(Cc3ccsc3)C2)c2ccc(N3CCOCC3)cc2n1 (stereo not drawn) [compound 44]	< 100
Fc1ccc2[nH]cc(C3CCCN(c4ncnc5cc(N6CCOCC6)ccc45)C3)c2c1 (stereo not drawn) [compound 9, 4-[3-(5-Fluoro-1H-indol-3-yl)piperidin-1-yl]-7-morpholin-4 ylquinazoline]	500 to 1000
c1csc(CC2CCCN(c3ncnc4cc(N5CCOCC5)ccc34)C2)c1 (stereo not drawn) [compound 33]	< 100
O=C(C1CCCN(c2ncnc3cc(N4CCOCC4)ccc23)C1)N1CCCCC1 (stereo not drawn) [compound 20, [1-(7-Morpholin-4-yl-quinazoline-4-yl)-piperidin-3-yl]-piperidin-1-yl-methanone]	100 to 500
O=C(c1nccs1)C1CCCN(c2ncnc3cc(N4CCOCC4)ccc23)C1 (stereo not drawn) [compound 50, [1-(7-Morpholin-4-yl-quinazolin-4-yl)-piperidin-3-yl]-thiazol-2-yl-methanone]	< 100
c1ccc([C@@H]2CCCN(c3ncnc4cc(N5CCOCC5)ccc34)C2)cc1 [compound 5, 7-Morpholin-4-yl-4-((S)-3-phenyl-piperidin-1-yl)-quinazoline]	100 to 500
c1ccn(CC2CCCN(c3ncnc4cc(N5CCOCC5)ccc34)C2)c1 (stereo not drawn) [compound 13, 7-Morpholin-4-yl-4-(3-pyrrol-1-ylmethyl-piperidin-1-yl)-quinazoline]	< 100
c1ccc2sc(CC3CCCN(c4ncnc5cc(N6CCOCC6)ccc45)C3)nc2c1 (stereo not drawn) [compound 43, 4-(3-Benzothiazol-2-ylmethylpiperidin-1-yl)-7-morpholin-4-yl-quinazoline]	100 to 500
O[C@@H](c1nccs1)C1CCCN(c2ncnc3cc(N4CCOCC4)ccc23)C1 (stereo partly drawn) [compound 65, (R)-[1-(7-Morpholin-4-ylquinazolin-4-yl)-piperidin-3-yl]-thiazol-2-yl-methanol]	< 100
Cc1cnc(CC2CCCN(c3ncnc4cc(N5CCOCC5)ccc34)C2)s1 (stereo not drawn) [compound 51, 4-[3-(5-Methyl-thiazol-2-ylmethyl)-piperidin-1-yl]-7-morpholin-4-yl-quinazoline]	< 100
O=C(NC1CCCN(c2nc(Cl)nc3cc(N4CCOCC4)ccc23)C1)c1nccs1 (stereo not drawn) [compound 60, N-[1-(2-Chloro-7-morpholin-4-yl-quinazolin-4-yl)-piperidin-3-yl]-thiazole-2-carboxamide]	< 100
O=C(c1ccc(F)cc1)C1CCCN(c2ncnc3cc(N4CCOCC4)ccc23)C1 (stereo not drawn) [compound 16, (4-Fluorophenyl)-[1-(7-morpholin-4-yl-quinazoline-4-yl)-piperidin-3-yl]-methanone]	100 to 500
N#Cc1nc(N2CCCCC2)c2ccc(N3CCOCC3)cc2n1 [compound 58, 7-Morpholin-4-yl-4-piperidin-1-yl-quinazoline-2-carbonitrile]	100 to 500
c1ccc(C[C@@H]2CCCN(c3ncnc4cc(N5CCOCC5)ccc34)C2)cc1 [compound 11, 4-((S)-3-Benzyl-piperidin-1-yl)-7-morpholin-4-yl-quinazoline]	100 to 500
CC1CCCN(c2ncnc3cc(N4CCOCC4)ccc23)C1 (stereo not drawn) [compound 12, 4-(3-Methylpiperidin-1-yl)-7-morpholin-4-ylquinazoline]	100 to 500
